EPA's ToxRefDB 2

Legend:
[1] = test system: mouse; conditions: Prenatal developmental toxicity study, cd1, Injection, Intravenous, dose end: 12 GD
[2] = test system: rat; conditions: Combined chronic toxicity/carcinogenicity; fischer; Dermal; Topical; dose end: 2 year; group: systemic; systemic / pathology microscopic / pituitary gland / adenoma
[3] = test system: rat; conditions: Subchronic oral toxicity in rodents, fischer, Dermal, Topical, dose end: 13 week, group: systemic
[4] = test system: mouse; conditions: Carcinogenicity, b6c3f1, Dermal, Topical, dose end: 2 year, group: systemic
[5] = test system: rat; conditions: Prenatal developmental toxicity study, sprague dawley, Oral, Gavage/Intubation, dose end: 15 GD
[6] = test system: rat; conditions: Prenatal developmental toxicity study, other, Oral, Gavage/Intubation, dose end: 15 GD
[7] = test system: rat; conditions: Subchronic dermal toxicity, sprague dawley, Topical, dose end: 91 day, group: systemic, systemic / in life observation / clinical signs / erythema + systemic / in life observation / clinical signs / scabbing + systemic / in life…
[8] = test system: rat; conditions: Subchronic oral toxicity in rodents, fischer, Feed, dose end: 13 week, group: systemic, systemic / in life observation / body weight / body weight gain
[9] = test system: rat; conditions: Carcinogenicity, fischer, Oral, Feed, dose end: 103 week, group: systemic
[10] = test system: mouse; conditions: Carcinogenicity; b6c3f1; Oral; Feed; dose end: 103 week; group: systemic; systemic / pathology microscopic / kidney / vacuolization
[11] = test system: mouse; conditions: Subchronic oral toxicity in rodents, b6c3f1, Feed, dose end: 13 week, group: systemic, systemic / in life observation / body weight / body weight gain
[12] = test system: rat; conditions: Subchronic oral toxicity in rodents, sprague dawley, Feed, dose end: 90 day, group: systemic
[13] = test system: rat; conditions: Prenatal developmental toxicity study, sprague dawley, Oral, Gavage/Intubation, dose end: 17 GD
[14] = test system: mouse; conditions: Carcinogenicity; cd1; Oral; Feed; dose end: 78 week; group: systemic; systemic / pathology microscopic / kidney / nephropathy
[15] = test system: rat; conditions: Combined chronic toxicity/carcinogenicity, sprague dawley, Oral, Feed, dose end: 24 month, group: systemic
[16] = test system: rat; conditions: Multigenerational reproductive toxicity study, sprague dawley, Oral, Feed, dose end: 2 generation
[17] = test system: dog; conditions: Chronic toxicity, beagle, Oral, Capsule, dose end: 52 week, group: systemic
[18] = test system: dog; conditions: Subchronic oral toxicity in nonrodent, beagle, Feed, dose end: 90 day, group: systemic
[19] = test system: rat; conditions: Prenatal developmental toxicity study, sprague dawley, Injection, Intramuscular, dose end: 13 GD, group: developmental
[20] = test system: rat; conditions: Subchronic oral toxicity in rodents, wistar, Feed, dose end: 13 week, group: systemic
[21] = group: developmental, developmental / developmental malformation / general / [other] + systemic / in life observation / body weight / fetal weight
[22] = group: developmental, systemic / in life observation / body weight / fetal weight
[23] = group: maternal, reproductive / reproductive performance / resorptions / resorptions + systemic / in life observation / body weight / body weight gain + …
[24] = systemic / pathology microscopic / lung / congestion + systemic / pathology microscopic / pancreas / vacuolization + systemic / in life …
[25] = systemic / in life observation / body weight / body weight + systemic / in life observation / mortality / mortality
[26] = group: maternal, systemic / in life observation / body weight / body weight
[27] = group: maternal, systemic / in life observation / body weight / body weight + systemic / in life observation / clinical signs / body surface staining + …
[28] = group: developmental, developmental / developmental malformation / bone / ossification sites + developmental / developmental malformation / bone / full …
[29] = group: maternal, systemic / in life observation / body weight / body weight + systemic / in life observation / food consumption / food consumption + systemic…
[30] = systemic / in life observation / body weight / body weight gain + systemic / pathology microscopic / eye / cataract + systemic / pathology …
[31] = systemic / clinical chemistry / aspartate aminotransferase (ast/sgot) / aspartate aminotransferase (ast/sgot) + systemic / clinical …
[32] = systemic / clinical chemistry / cholesterol / cholesterol + systemic / clinical chemistry / lipids / phospholipids + systemic / hematology…
[33] = group: developmental, developmental / developmental malformation / bone / [other]
[34] = group: developmental, developmental / developmental malformation / bone / [other] + developmental / developmental malformation / other / other + developmental / …
[35] = group: maternal, systemic / in life observation / body weight / body weight + systemic / in life observation / body weight / body weight gain + systemic / in…
[36] = systemic / clinical chemistry / gamma glutamyl transferase (ggt) / gamma glutamyl transferase (ggt)
[37] = group: offspring, systemic / in life observation / body weight / offspring (pup) weight
[38] = group: parental, systemic / in life observation / body weight / body weight + systemic / in life observation / body weight / body weight gain + systemic / in…
[39] = systemic / in life observation / body weight / body weight gain + systemic / organ weight / liver / relative to body weight + systemic / …
[40] = systemic / clinical chemistry / lipids / phospholipids
[41] = developmental / developmental malformation / mouth / jaw / cleft palate
[42] = developmental / developmental malformation / mouth / jaw / cleft palate + systemic / in life observation / body weight / fetal weight
[43] = systemic / in life observation / clinical signs / lack of coordination + systemic / in life observation / clinical signs / voluntary muscle …

SMILES: OCCCl [2-Chloroethanol]
- LOAEL [1, 21]: > 120 mg/kg/day
- NOAEL [1, 21]: ≥ 120 mg/kg/day
- LEL [1, 22]: 60 mg/kg/day
- NEL [1, 22]: < 60 mg/kg/day
- LEL [1, 23]: 120 mg/kg/day
- LOAEL [1, 23]: > 120 mg/kg/day
- NEL [1, 23]: 60 mg/kg/day
- NOAEL [1, 23]: ≥ 120 mg/kg/day
- LEL [2]: 100 mg/kg/day
- LOAEL [2]: > 100 mg/kg/day
- NEL [2]: 50 mg/kg/day
- NOAEL [2]: ≥ 100 mg/kg/day
- LOAEL ([3]; systemic / pathology microscopic / lung / congestion + systemic / pathology microscopic / pancreas / vacuolization): 500 mg/kg/day
- NEL [3, 24]: 125 mg/kg/day
- NOAEL [3, 24]: 250 mg/kg/day
- LEL ([3]; systemic / pathology microscopic / pancreas / vacuolization + systemic / in life observation / mortality / mortality): 250 mg/kg/day
- LEL [4, 25]: 180 mg/kg/day
- NEL [4, 25]: < 180 mg/kg/day
- LOAEL ([4]; systemic / pathology microscopic / skin / inflammation + systemic / pathology microscopic / skin / ulcer): 411 mg/kg/day
- NOAEL ([4]; systemic / pathology microscopic / skin / inflammation + systemic / pathology microscopic / skin / ulcer + systemic / in life observation / …): 180 mg/kg/day

SMILES: Cc1cc(C)n(CO)n1 [(3,5-Dimethyl-1H-pyrazol-1-yl)methanol]
- LEL [5, 22]: 400 mg/kg/day
- LOAEL [5, 22]: 400 mg/kg/day
- NEL [5, 22]: 200 mg/kg/day
- NOAEL [5, 22]: 200 mg/kg/day
- LOAEL [5, 26]: 100 mg/kg/day
- NOAEL [5, 26]: < 100 mg/kg/day
- LEL [5, 27]: 100 mg/kg/day
- NEL [5, 27]: < 100 mg/kg/day
- LEL [6, 28]: 150 mg/kg/day
- LOAEL [6, 28]: 150 mg/kg/day
- NEL [6, 28]: 75 mg/kg/day
- NOAEL [6, 28]: 75 mg/kg/day
- LOAEL ([6]; group: maternal, systemic / in life observation / body weight / body weight + systemic / in life observation / food consumption / food consumption): 150 mg/kg/day
- LEL [6, 29]: 150 mg/kg/day
- NEL [6, 29]: 75 mg/kg/day
- NOAEL [6, 29]: 75 mg/kg/day
- LEL [7]: 50 mg/kg/day
- LOAEL [7]: 50 mg/kg/day
- NEL [7]: < 50 mg/kg/day
- NOAEL [7]: < 50 mg/kg/day

SMILES: OC[C@@H](O)[C@@H](O)[C@H](O)[C@H](O)CO [D-Mannitol]
- LEL [8]: 2500 mg/kg/day
- LOAEL [8]: 2500 mg/kg/day
- NEL [8]: 1250 mg/kg/day
- NOAEL [8]: 1250 mg/kg/day
- LOAEL ([9]; systemic / in life observation / body weight / body weight gain): 2500 mg/kg/day
- LEL [9, 30]: 1250 mg/kg/day
- NEL [9, 30]: < 1250 mg/kg/day
- NOAEL [9, 30]: 1250 mg/kg/day
- LEL [10]: 3750 mg/kg/day
- LOAEL [10]: 3750 mg/kg/day
- NEL [10]: < 3750 mg/kg/day
- NOAEL [10]: < 3750 mg/kg/day
- LEL [11]: > 7500 mg/kg/day
- LOAEL [11]: > 7500 mg/kg/day
- NEL [11]: ≥ 7500 mg/kg/day
- NOAEL [11]: ≥ 7500 mg/kg/day

SMILES: CC(COc1ccc(Oc2ccccc2)cc1)Oc1ccccn1 (stereo not given) [Pyriproxyfen]
- LEL [12, 31]: 23.5 mg/kg/day
- NEL [12, 31]: < 23.5 mg/kg/day
- LOAEL [12, 32]: 118 mg/kg/day
- NOAEL [12, 32]: 23.5 mg/kg/day
- LEL [13, 33]: 300 mg/kg/day
- LOAEL [13, 33]: 300 mg/kg/day
- NEL [13, 34]: 100 mg/kg/day
- NOAEL [13, 34]: 100 mg/kg/day
- LEL [13, 35]: 300 mg/kg/day
- LOAEL [13, 35]: 300 mg/kg/day
- NEL [13, 35]: 100 mg/kg/day
- NOAEL [13, 35]: 100 mg/kg/day
- LEL [14]: 420 mg/kg/day
- LOAEL [14]: 420 mg/kg/day
- NEL [14]: 84 mg/kg/day
- NOAEL [14]: 84 mg/kg/day
- LEL [15, 36]: 7.04 mg/kg/day
- NEL [15, 36]: < 7.04 mg/kg/day
- NOAEL ([15]; systemic / clinical chemistry / gamma glutamyl transferase (ggt) / gamma glutamyl transferase (ggt) + systemic / in life observation / body …): 35.1 mg/kg/day
- LOAEL ([15]; systemic / in life observation / body weight / body weight): 183 mg/kg/day
- LEL [16, 37]: 453 mg/kg/day
- LOAEL [16, 37]: 453 mg/kg/day
- NEL [16, 37]: 87 mg/kg/day
- NOAEL [16, 37]: 87 mg/kg/day
- LOAEL [16, 38]: 453 mg/kg/day
- NEL [16, 38]: 18 mg/kg/day
- NOAEL [16, 38]: 87 mg/kg/day
- LEL ([16]; group: parental, systemic / organ weight / liver / relative to body weight + systemic / pathology microscopic / kidney / inflammation + systemic / organ …): 87 mg/kg/day
- LEL ([17]; systemic / in life observation / body weight / body weight gain + systemic / clinical chemistry / cholesterol / cholesterol + systemic / …): 100 mg/kg/day
- LOAEL ([17]; systemic / in life observation / body weight / body weight gain + systemic / organ weight / liver / relative to body weight): 300 mg/kg/day
- NEL [17, 39]: 30 mg/kg/day
- NOAEL [17, 39]: 100 mg/kg/day
- LEL [18, 40]: 100 mg/kg/day
- NEL [18, 40]: < 100 mg/kg/day
- NOAEL ([18]; systemic / pathology microscopic / liver / hypertrophy + systemic / clinical chemistry / alpha-1 globulin / alpha-1 globulin + systemic / …): 100 mg/kg/day
- LOAEL ([18]; systemic / pathology microscopic / liver / hypertrophy + systemic / organ weight / liver / absolute + systemic / organ weight / liver / …): 300 mg/kg/day

SMILES: C[C@]12C=CC(=O)C=C1CC[C@H]1[C@@H]3C[C@@H](O)[C@](O)(C(=O)CO)[C@@]3(C)C[C@H](O)[C@@]12F [Triamcinolone]
- LEL [19, 41]: 10 mg/kg/day
- NEL [19, 41]: < 10 mg/kg/day
- LOAEL [19, 42]: > 40 mg/kg/day
- NOAEL [19, 42]: ≥ 40 mg/kg/day

SMILES: CC1(C)[C@H](C(=O)O[C@H](C#N)c2cccc(Oc3ccccc3)c2)[C@@H]1/C=C(\Cl)C(F)(F)F [gamma-Cyhalothrin]
- LOAEL [20, 43]: 6.6 mg/kg/day
- NEL [20, 43]: 0.7 mg/kg/day
- NOAEL [20, 43]: 3.4 mg/kg/day
- LEL ([20]; systemic / organ weight / liver / relative to body weight): 3.4 mg/kg/day
